Data reported in ChEMBL document CHEMBL3272075, “Direct measurement of octanol-water partition coefficients by high-pressure liquid chromatography” (J Med Chem, 1976).

Columns and labels:
physchem [1] = conditions: octanol/water
Description: Partition coefficient, log P of the compound by shake-flask technique

physchem [2] = conditions: octanol/water; remark: listed apart in the source
Description: Partition coefficient, log P of the compound by HPLC analysis

SMILES | logP (physchem [1]) | logP (physchem [2])
c1ccc2nc3ccccc3cc2c1 [ACRIDINE] | 3.4 | 3.39
c1ccc2nc3ccccc3nc2c1 [PHENAZINE] | 2.85 | 2.81
CC(=O)Nc1ccc(OCC(O)CNC(C)C)cc1 (stereo not drawn) [PRACTOLOL] | 0.79 | 0.78
Nc1ccncc1 [DALFAMPRIDINE] | 0.28 | 0.26
Cc1ccnc2ccccc12 |  | 2.52
COc1ccccc1 [ANISOLE] |  | 2.1
Brc1cnc2ccccc2c1 |  | 3.03
CC(=O)Nc1ccccc1 [ACETANILIDE] | 1.16 | 1.14
Cc1cccnc1 [3-METHYLPYRIDINE] |  | 1.2
c1ccc2cnccc2c1 [ISOQUINOLINE] | 2.08 | 2.09
c1ccc2ncccc2c1 [QUINOLINE] | 2.03 | 2.04
